Measured values from BindingDB's records for doi:10.1021/jm960594+ (Nippon Zoki Pharmaceutical, 1997).

Molecular target: T1, Aldo-keto reductase family 1 member A1 (Rattus norvegicus, UniProt P51635)
T1 sequence (P51635 whole entry): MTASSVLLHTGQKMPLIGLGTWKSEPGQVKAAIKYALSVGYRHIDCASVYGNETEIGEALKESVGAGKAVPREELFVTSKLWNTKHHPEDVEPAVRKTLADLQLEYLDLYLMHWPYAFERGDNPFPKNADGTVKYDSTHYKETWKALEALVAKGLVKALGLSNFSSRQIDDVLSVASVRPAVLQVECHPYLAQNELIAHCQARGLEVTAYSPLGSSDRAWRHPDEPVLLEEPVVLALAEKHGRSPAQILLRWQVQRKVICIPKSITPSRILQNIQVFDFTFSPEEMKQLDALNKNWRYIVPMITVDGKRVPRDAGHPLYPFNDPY
Experiment: In vitro inhibitory activity against rat kidney aldehyde reductase(ALR).

IC50 [µM]	SMILES
> 100	O=C(O)Cn1c(O)cn(Cc2cccc([N+](=O)[O-])c2)c1=O [[3-(3-Nitro-benzyl)-2,5-dioxo-imidazolidin-1-yl]-acetic acid]
> 100	O=C(O)Cn1cc(O)n(Cc2cccc([N+](=O)[O-])c2)c1=O [[3-(3-Nitro-benzyl)-2,4-dioxo-imidazolidin-1-yl]-acetic acid]
> 100	O=C(O)Cn1c(O)c(O)n(Cc2cccc([N+](=O)[O-])c2)c1=O
> 100	O=C(O)Cn1c(=O)cc(O)n(Cc2cccc([N+](=O)[O-])c2)c1=O [[3-(3-Nitro-benzyl)-2,4,6-trioxo-tetrahydro-pyrimidin-1-yl]-acetic acid]
